According to patent US20240092790A1, “DIHYDROFUROPYRIDINE DERIVATIVES AS RHO- KINASE INHIBITORS” (CHIESI FARMACEUTICI S.P.A., priority 2020, published 2024):

What was measured:
Format in all cases: biochemical
ROCK2 = ROCK2 (Homo sapiens, UniProt O75116); test: In vitro inhibitory activity assay ROCK2 (ADP-Glo); settings: ATP 200 μM, Cheng-Prusoff; read-out: ROCK2 (Ki, range of activity)
Method: (§1) In Vitro Inhibitory Activity Assay Description ROCK1 and ROCK2
(§2) The effectiveness of compounds of the present invention to inhibit Rho kinase activity can be determined in a 10 μl assay containing 40 mM Tris pH7.5, 20 mM MgCl2 0.1 mg/mL BSA, 50 μM DTT and 2.5 μM peptide substrate (Myelin Basic Protein) using an ADP-Glo kit (Promega). Compounds were dissolved in DMSO such that the final concentration of DMSO was 1% in the assay. All reactions/incubations are performed at 25° C. Compound (2 ul) and either Rho kinase 1 or 2 (4 μl) were mixed and incubated for 30 mins. Reactions were initiated by addition of ATP (4 μl) such that the final concentration of ATP in the assay was 200 μM. After a 1 hour incubation 10 μl of ADP-Glo Reagent was added and after a further 1 hour incubation 20 ul of Kinase Detection Buffer was added and the mixture incubated for a further 45 minutes. The luminescent signal was measured on a luminometer. […] Compounds were tested in dose-response format and the inhibition of kinase activity was calculated at each concentration of compound. To determine the IC50 (concentration of compound required to inhibit 50% of the enzyme activity) data were fit to a plot of % inhibition vs Log 10 compound concentration using a sigmoidal fit with a variable slope and fixing the maximum to 100% and the minimum to 0%. To determine the Ki values the Cheng-Prusoff equation was utilized (Ki=IC50/(1+[S]/Km).

ROCK1 = ROCK1 (Homo sapiens, UniProt Q13464); test: In vitro inhibitory activity assay ROCK1 (ADP-Glo); settings: ATP 200 μM, Cheng-Prusoff; read-out: ROCK 1 (Ki, range of activity)
Method: as §1, §2

PKA = PKA (Homo sapiens, UniProt P17612); test: In vitro inhibitory activity assay for PKA (ADP-Glo), reported as selectivity ratio vs ROCK2; settings: Ki value for PKA divided by Ki value of ROCK2
Method: In Vitro Inhibitory Activity Assay Description for PKA
The effectiveness of compounds of the present invention to inhibit PKA activity can be determined in a 10 μl assay containing 40 mM Tris pH7.5, 20 mM MgCl2 0.1 mg/ml BSA, 50 μM DTT and 260 μM peptide substrate (kemptide) using an ADP-Glo kit (Promega). Compounds were dissolved in DMSO such that the final concentration of DMSO was 1% in the assay. All reactions/incubations are performed at 25° C. Compound and PKA enzyme (6 μl) were mixed and incubated for 30 mins. Reactions were initiated by addition of ATP (4 μl) such that the final concentration of ATP in the assay was 10 μM. After a 30 minute incubation 10p of ADP-Glo Reagent was added and after a further 1 hour incubation 20 μl of Kinase Detection Buffer was added and the mixture incubated for a further 45 minutes. The luminescent signal was measured on a luminometer. […] Compounds were tested in dose-response format and the inhibition of kinase activity was calculated at each concentration of compound. To determine the IC50 (concentration of compound required to inhibit 50% of the enzyme activity) data were fit to a plot of % inhibition vs Log10 compound concentration using a sigmoidal fit with a variable slope and fixing the maximum to 100% and the minimum to 0%. To determine the Ki values the Cheng-Prusoff equation was utilized (Ki=IC50/(1+[S]/Km).
In vitro inhibitory activities for PKA were reported as selectivity ratio vs. ROCK-2.

Sequence of ROCK2 (O75116 whole entry): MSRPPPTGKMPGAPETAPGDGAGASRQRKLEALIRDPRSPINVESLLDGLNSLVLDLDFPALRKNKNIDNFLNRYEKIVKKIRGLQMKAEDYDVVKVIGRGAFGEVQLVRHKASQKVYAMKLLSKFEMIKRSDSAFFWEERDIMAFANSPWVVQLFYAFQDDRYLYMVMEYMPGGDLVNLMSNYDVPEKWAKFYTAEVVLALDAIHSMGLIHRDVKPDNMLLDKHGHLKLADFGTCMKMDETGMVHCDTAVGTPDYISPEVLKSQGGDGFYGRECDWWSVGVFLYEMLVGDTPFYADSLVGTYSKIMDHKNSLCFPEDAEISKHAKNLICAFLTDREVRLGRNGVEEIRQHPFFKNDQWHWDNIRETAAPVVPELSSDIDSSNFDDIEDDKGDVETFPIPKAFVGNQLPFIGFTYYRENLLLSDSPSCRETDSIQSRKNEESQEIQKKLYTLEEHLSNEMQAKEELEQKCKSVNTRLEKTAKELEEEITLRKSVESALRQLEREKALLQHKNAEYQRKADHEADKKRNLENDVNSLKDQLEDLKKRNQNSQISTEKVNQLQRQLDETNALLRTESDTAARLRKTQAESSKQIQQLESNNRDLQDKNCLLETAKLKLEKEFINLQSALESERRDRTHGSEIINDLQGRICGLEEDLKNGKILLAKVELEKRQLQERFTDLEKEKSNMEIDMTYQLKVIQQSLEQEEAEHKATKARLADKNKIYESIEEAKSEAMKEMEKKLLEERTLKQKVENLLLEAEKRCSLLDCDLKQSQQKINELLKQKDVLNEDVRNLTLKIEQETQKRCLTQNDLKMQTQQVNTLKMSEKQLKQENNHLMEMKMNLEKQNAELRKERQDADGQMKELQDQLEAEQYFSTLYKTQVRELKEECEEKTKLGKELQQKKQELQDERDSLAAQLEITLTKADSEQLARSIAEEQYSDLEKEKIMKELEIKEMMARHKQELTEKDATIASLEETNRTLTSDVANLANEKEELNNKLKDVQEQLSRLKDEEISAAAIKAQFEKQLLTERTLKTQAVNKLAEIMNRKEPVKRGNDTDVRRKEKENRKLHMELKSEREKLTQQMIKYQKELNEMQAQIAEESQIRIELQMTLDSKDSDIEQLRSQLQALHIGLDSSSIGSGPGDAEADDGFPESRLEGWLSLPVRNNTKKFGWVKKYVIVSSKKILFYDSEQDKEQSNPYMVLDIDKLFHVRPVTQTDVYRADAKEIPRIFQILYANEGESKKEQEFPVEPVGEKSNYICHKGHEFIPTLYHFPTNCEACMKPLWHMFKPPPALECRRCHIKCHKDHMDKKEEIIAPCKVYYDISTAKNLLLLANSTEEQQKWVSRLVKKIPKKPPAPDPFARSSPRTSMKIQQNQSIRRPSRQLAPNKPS
Sequence of ROCK1 (Q13464 whole entry): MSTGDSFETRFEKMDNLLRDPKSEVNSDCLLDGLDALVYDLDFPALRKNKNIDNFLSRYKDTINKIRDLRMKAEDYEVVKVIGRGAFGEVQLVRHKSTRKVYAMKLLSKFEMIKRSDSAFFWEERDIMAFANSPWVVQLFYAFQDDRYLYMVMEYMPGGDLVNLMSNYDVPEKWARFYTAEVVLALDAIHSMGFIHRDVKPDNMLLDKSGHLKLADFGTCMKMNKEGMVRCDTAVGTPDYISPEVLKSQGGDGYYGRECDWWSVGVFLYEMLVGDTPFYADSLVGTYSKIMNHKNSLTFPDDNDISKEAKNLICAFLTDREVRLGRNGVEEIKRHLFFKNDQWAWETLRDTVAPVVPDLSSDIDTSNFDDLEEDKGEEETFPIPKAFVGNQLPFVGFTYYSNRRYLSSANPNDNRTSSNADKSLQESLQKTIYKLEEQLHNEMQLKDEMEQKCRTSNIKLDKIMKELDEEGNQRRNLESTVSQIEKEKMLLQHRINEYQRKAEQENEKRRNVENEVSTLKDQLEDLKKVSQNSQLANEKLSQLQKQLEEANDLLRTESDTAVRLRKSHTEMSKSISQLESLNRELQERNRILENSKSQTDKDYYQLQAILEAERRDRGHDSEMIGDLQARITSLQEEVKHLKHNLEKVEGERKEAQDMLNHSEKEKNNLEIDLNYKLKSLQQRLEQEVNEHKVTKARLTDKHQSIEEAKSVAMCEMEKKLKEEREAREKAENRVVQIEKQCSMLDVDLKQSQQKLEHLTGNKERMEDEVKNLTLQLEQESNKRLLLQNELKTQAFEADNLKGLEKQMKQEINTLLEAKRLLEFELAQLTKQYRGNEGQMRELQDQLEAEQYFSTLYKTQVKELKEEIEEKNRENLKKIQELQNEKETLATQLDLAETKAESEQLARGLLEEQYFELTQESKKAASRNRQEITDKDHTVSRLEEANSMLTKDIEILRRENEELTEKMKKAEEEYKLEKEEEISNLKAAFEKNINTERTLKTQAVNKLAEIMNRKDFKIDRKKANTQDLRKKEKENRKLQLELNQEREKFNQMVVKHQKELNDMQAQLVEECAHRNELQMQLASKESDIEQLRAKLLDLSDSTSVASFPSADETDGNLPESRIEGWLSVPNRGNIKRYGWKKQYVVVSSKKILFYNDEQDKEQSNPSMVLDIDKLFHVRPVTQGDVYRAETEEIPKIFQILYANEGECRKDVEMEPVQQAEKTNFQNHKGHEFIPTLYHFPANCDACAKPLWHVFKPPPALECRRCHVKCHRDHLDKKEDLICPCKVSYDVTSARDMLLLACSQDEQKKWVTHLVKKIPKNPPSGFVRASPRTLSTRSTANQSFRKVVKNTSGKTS

Row | SMILES | Ki (ROCK2) | Ki (ROCK1) | Ratio (PKA/ROCK2) (PKA)
1 | CNC(=O)c1cccc(CNc2ncc(-c3ccnc(N)n3)c3c2CCO3)c1F [Example 54, 3-(((7-(2-Aminopyrimidin-4-yl)-2,3-dihydrofuro[3,2-c]pyridin-4-yl)amino)methyl)-2-fluoro-N-methylbenzamide] | 3 to 30 nM | > 30 nM | *** (ratio≥10)
2 | COCCCNC(=O)c1cccc(CNc2ncc(-c3ccnc(N)n3)c3c2CCO3)c1F [Example 55, 3-(((7-(2-Aminopyrimidin-4-yl)-2,3-dihydrofuro[3,2-c]pyridin-4-yl)amino)methyl)-2-fluoro-N-(3-methoxypropyl)benzamide] | ≤ 3 nM | 3 to 30 nM | *** (ratio≥10)
3 | Nc1nccc(-c2cnc(NCc3cccc(C(=O)NC4CCOCC4)c3F)c3c2OCC3)n1 [Example 56, 3-(((7-(2-Aminopyrimidin-4-yl)-2,3-dihydrofuro[3,2-c]pyridin-4-yl)amino)methyl)-2-fluoro-N-(tetrahydro-2H-pyran-4-yl)benzamide] | 3 to 30 nM | 3 to 30 nM | *** (ratio≥10)
4 | COCCCNC(=O)c1cc(CNc2ncc(-c3ccnc(N)n3)c3c2CCO3)ccc1F [Example 57, 5-(((7-(2-Aminopyrimidin-4-yl)-2,3-dihydrofuro[3,2-c]pyridin-4-yl)amino)methyl)-2-fluoro-N-(3-methoxypropyl)benzamide] | ≤ 3 nM | 3 to 30 nM | *** (ratio≥10)
5 | CNC(=O)c1cc(F)cc(CNc2ncc(-c3ccnc(N)n3)c3c2CCO3)c1 [Example 59, 3-(((7-(2-Aminopyrimidin-4-yl)-2,3-dihydrofuro[3,2-c]pyridin-4-yl)amino)methyl)-5-fluoro-N-methylbenzamide] | ≤ 3 nM | ≤ 3 nM | *** (ratio≥10)
6 | COCCCNC(=O)c1cc(F)cc(CNc2ncc(-c3ccnc(N)n3)c3c2CCO3)c1 [Example 60, 3-(((7-(2-Aminopyrimidin-4-yl)-2,3-dihydrofuro[3,2-c]pyridin-4-yl)amino)methyl)-5-fluoro-N-(3-methoxypropyl)benzamide] | ≤ 3 nM | ≤ 3 nM | *** (ratio≥10)
7 | COCCCNC(=O)c1ccc(F)c(CNc2ncc(-c3ccnc(N)n3)c3c2CCO3)c1 [Example 62, 3-(((7-(2-Aminopyrimidin-4-yl)-2,3-dihydrofuro[3,2-c]pyridin-4-yl)amino)methyl)-4-fluoro-N-(3-methoxypropyl)benzamide] | 3 to 30 nM | > 30 nM | *** (ratio≥10)
8 | CNC(=O)c1cccc(CNc2ncc(-c3ccnc(N)n3)c3c2CCO3)n1 [Example 63, 6-(((7-(2-Aminopyrimidin-4-yl)-2,3-dihydrofuro[3,2-c]pyridin-4-yl)amino)methyl)-N-methylpicolinamide] | 3 to 30 nM | > 30 nM | *** (ratio≥10)

Next, values leading:

Row | Ki (ROCK2) | Ki (ROCK1) | Ratio (PKA/ROCK2) (PKA) | SMILES
9 | ≤ 3 nM | ≤ 3 nM | *** (ratio≥10) | CO[C@H]1C[C@H](NC(=O)c2cccc(CNc3ncc(-c4ccnc(N)n4)c4c3CCO4)c2)C1 [Example 41, 3-(((7-(2-Aminopyrimidin-4-yl)-2,3-dihydrofuro[3,2-c]pyridin-4-yl)amino)methyl)-N-((1R,3R)-3-methoxycyclobutyl)benzamide]
10 | ≤ 3 nM | ≤ 3 nM | *** (ratio≥10) | Nc1nccc(-c2cnc(NCc3cccc(C(=O)NC[C@H]4CCCO4)c3)c3c2OCC3)n1 [Example 42, (R)-3-(((7-(2-Aminopyrimidin-4-yl)-2,3-dihydrofuro[3,2-c]pyridin-4-yl)amino)methyl)-N-((tetrahydrofuran-2-yl)methyl)benzamide]
11 | ≤ 3 nM | ≤ 3 nM | *** (ratio≥10) | Nc1nccc(-c2cnc(NCc3cccc(C(=O)NC[C@@H]4CCCO4)c3)c3c2OCC3)n1 [Example 43, (S)-3-(((7-(2-Aminopyrimidin-4-yl)-2,3-dihydrofuro[3,2-c]pyridin-4-yl)amino)methyl)-N-((tetrahydrofuran-2-yl)methyl)benzamide]
12 | ≤ 3 nM | ≤ 3 nM | *** (ratio≥10) | CC(F)(F)CNC(=O)c1cccc(CNc2ncc(-c3ccnc(N)n3)c3c2CCO3)c1 [Example 44, 3-(((7-(2-Aminopyrimidin-4-yl)-2,3-dihydrofuro[3,2-c]pyridin-4-yl)amino)methyl)-N-(2,2-difluoropropyl)benzamide]
13 | ≤ 3 nM | ≤ 3 nM | *** (ratio≥10) | Nc1nccc(-c2cnc(NCc3cccc(C(=O)N[C@H]4C[C@H]4F)c3)c3c2OCC3)n1 [Example 47, 3-(((7-(2-Aminopyrimidin-4-yl)-2,3-dihydrofuro[3,2-c]pyridin-4-yl)amino)methyl)-N-((1S,2R)-2-fluorocyclopropyl)benzamide]
14 | ≤ 3 nM | ≤ 3 nM | ** (5≤ratio<10) | Nc1nccc(-c2cnc(NCc3cccc(C(=O)N[C@H]4C[C@@H](F)C4)c3)c3c2OCC3)n1 [Example 48, 3-(((7-(2-Aminopyrimidin-4-yl)-2,3-dihydrofuro[3,2-c]pyridin-4-yl)amino)methyl)-N-((1S,3S)-3-fluorocyclobutyl)benzamide]
15 | ≤ 3 nM | ≤ 3 nM | *** (ratio≥10) | Nc1nccc(-c2cnc(NCc3cccc(C(=O)N[C@H]4C[C@H](F)C4)c3)c3c2OCC3)n1 [Example 49, 3-(((7-(2-Aminopyrimidin-4-yl)-2,3-dihydrofuro[3,2-c]pyridin-4-yl)amino)methyl)-N-((1r,3r)-3-fluorocyclobutyl)benzamide]
16 | ≤ 3 nM | ≤ 3 nM | *** (ratio≥10) | Nc1nccc(-c2cnc(NCc3cccc(C(=O)NCCC(F)F)c3)c3c2OCC3)n1 [Example 50, 3-(((7-(2-Aminopyrimidin-4-yl)-2,3-dihydrofuro[3,2-c]pyridin-4-yl)amino)methyl)-N-(3,3-difluoropropyl)benzamide]
17 | ≤ 3 nM | 3 to 30 nM | *** (ratio≥10) | Nc1nccc(-c2cnc(NCc3ccc(F)c(C(=O)NC4CCOCC4)c3)c3c2OCC3)n1 [Example 58, 5-(((7-(2-Aminopyrimidin-4-yl)-2,3-dihydrofuro[3,2-c]pyridin-4-yl)amino)methyl)-2-fluoro-N-(tetrahydro-2H-pyran-4-yl)benzamide]
18 | 3 to 30 nM | > 30 nM | *** (ratio≥10) | Nc1nccc(-c2cnc(NCc3cc(C(=O)NC4CCOCC4)ccc3F)c3c2OCC3)n1 [Example 61, 3-(((7-(2-Aminopyrimidin-4-yl)-2,3-dihydrofuro[3,2-c]pyridin-4-yl)amino)methyl)-4-fluoro-N-(tetrahydro-2H-pyran-4-yl)benzamide]
19 | ≤ 3 nM | 3 to 30 nM | *** (ratio≥10) | COCCCC(=O)Nc1cccc(CNc2ncc(-c3ccnc(N)n3)c3c2CCO3)c1 [Example 64, N-(3-(((7-(2-aminopyrimidin-4-yl)-2,3-dihydrofuro[3,2-c]pyridin-4-yl)amino)methyl)phenyl)-4-methoxybutanamide]
